Results from US5922775A, “Method of treating malignant tumors with ketone thyroxine analogues having no significant hormonal activity” (priority 1997, dated 1999).
Entries after “also recorded” stand apart in the source; their conditions may differ.

What was measured:
thyroid iodine uptake = details: rats; as compared to thyroxine; cited from earlier work
Rana pipiens tadpoles = details: tadpole metamorphosis; cited from earlier work
[1] = test system: human mammary cancer cells (MDA-MB-231); experiment: Growth of human mammary cancer cells (Table 2 A); type: cell-based; details: 2 μM
From the text: The effects of these three substances on the growth of human mammary cancer cells (MDA-MB-231) and human lung cancer cells (A 549) are summarized in Table 2.
In section (a) of Table 2 the effects of DIME, DIPE and DIPP on the growth of mammary cancer cells, assayed at 48 and 72 hrs, is shown. […] The slightly lesser efficacy of DIPP could be predicted from earlier results obtained with DIME analogs (International Journal of Oncology, 1997, 10, 689-695, FIG. 1) where we have shown that extending the methyl to ethyl substitution (on the carboxyl ester) diminishes cytotoxicity against tumor cells. A similar phenomenon occurs when DIPE is extended to DIPP (i.e. from the ethanone to the propanone).
(×10^3) Cell number per 2 cm^2

malignant tumors = details: cited from earlier work

Question: For `COC(=O)c1cc(I)c(Oc2ccc(OC)cc2)c(I)c1` [DIME, methyl 3,5-diiodo-4-(4'-methoxyphenoxy)benzoate], which “inhibition of uptake of iodine into the thyroid” value (thyroid iodine uptake) is on record?
Answer: 15%

Question: And the “cell differentiating / metamorphogenic activity” value (Rana pipiens tadpoles)?
Answer: no significant metabolic or metamorphogenic action; also recorded: no significant metabolic or cell differentiating activity

Question: And the Cell number ([1]; 48 hours, control 150)?
Answer: 60 ×10^3 cell number per 2 cm^2 w

Question: And the Cell number ([1]; 72 hours, control 300)?
Answer: 65 ×10^3 cell number per 2 cm^2 w

Question: And the “anti-tumor activity in vivo” value (malignant tumors)?
Answer: potential tumoricidal agent both in cell cultures and in vivo; also recorded: highly active both in cellular assays and in vivo
